Km data for 1 molecule are collected here from article PMC8526983 (The Journal of Biological Chemistry, 2021).

For this experiment, the target named is T1, PfK5ΔL6-MD (Plasmodium falciparum, UniProt O77382, DEL175-269).
T1 construct: gene PF3D7_0317500
Particulars: read-out: KATP; 1 μM GMPCPP-stabilised Sus scrofa microtubules; 50 mM Tris-HCl pH 8, KCl, 2 mM MgCl2, 2 mM DTT; 26 °C.

`Nc1ncnc2c1ncn2[C@@H]1O[C@H](COP(=O)(O)OP(=O)(O)OP(=O)(O)O)[C@@H](O)[C@H]1O` [ATP]: the Km stood at 9.5 µM.
